The record followed here is US5622983A, “N-substituted cycloalkyl and polycycloalkyl α-substituted Trp-Phe- and phenethylamine derivatives” (Warner-Lambert Company, priority 1995, dated 1997).

Assay [1] can be described thus: Palatable Diet Feeding assay. The class given is in vivo, rat. The note with it: dose producing 50% of the maximum effect possible (zero food intake). As to the method:
In the Palatable Diet Feeding assay, adult male Hooded Lister rats weighing between 200-400 g were housed individually and trained to eat a palatable diet. This diet consisted of Nestles sweetened condensed milk, powdered rat food and rat water which when blended together set to a firm consistency. […] The intake of palatable diet was measured by weighing the food container before and after the 30-minute access period (limits of accuracy 0.1 g). Care was taken to collect and correct for any spillage of the diet. Rats had free access to pellet food and water except during the 30-minute test period.
After the training period, dose-response curves were constructed for CCK8 and several representative compounds of the present invention (n=8-10 rats per dose level).

Assay [2] deals with pentagastrin stimulated gastric acid secretion. As to the kind of experiment: Pentagastrin stimulated gastric acid secretion (Ghosh and Schild perfused stomach). Type of assay: in vivo, rat. The note with it: 1 nmole/kg pentagastrin. As to the method:
They were anesthetized with urethane (1.5 g/kg IP) and the trachea cannulated to aid spontaneous respiration. The stomach was perfused continuously using a modification of the original method of Ghosh & Schild in "Continuous recording of acid secretion in the rat", Br. J. Pharmac. […] The fluid was propelled by a roller pump (Gilson, Minipuls 2), through heating coils to bring its temperature to 37°±1° C. The perfusion fluid was collected by the fundic collecting funnel and passed to a pH electrode connected to a Jenway pH meter (PHM6). An output was taken from the pH meter to a Rikadenki chart recorder for the on-line recording of the pH of the gastric perfusate.
Pentagastrin was stored as a frozen aliquot and diluted to the required concentrations with sterile 0.9% w/v NaCl. Novel compounds were dissolved in sterile 0.9% w/v NaCl on the day of the experiment. Drugs were administered IV through a cannulated jugular vein as a bolus in a dose volume of 1 mL/kg washed in with 0.15 mL 0.9% w/v NaCl. Basal pH was allowed to stabilize before administration of compounds was begun.

Another assay concerns LoVo cells. Nature of the assay: In vitro proliferation of LoVo cells (tetrazolium salt colorimetric assay). The class given is cell-based, human. How it is done:
LoVo was obtained from the American Tissue Type Collection (ATCC CCL 229). Five×10^3 to 1×10^4 LoVo cells were cultured in 200 μL of serum containing RPMI in 96-well flat-bottomed titre plates for 24 hours. […] Cell proliferation was measured indirectly using a tetrazolium salt colorimetric assay for cellular respiration (Merlin JL, Azzi S, Lignon D, Ramacci C, Zeghari N, Guillemin F. MTT assays allow quick and reliable measurement of the response of human tumor cell to photodynamic therapy. Eur. J. Cancer, 28(8/9):1452-1458 (1992)).

A short description of assay [3]: Flexor response in stimulated spinalized decerebrated rat preparation.

For `CC(Cc1c[nH]c2ccccc12)(NC(=O)OC1C2CC3CC(C2)CC1C3)C(=O)NCC(NC(=O)CCC(=O)O)c1ccccc1` (stereo not drawn) [Example 20, [R-(R*,R*)-4-[[2-[[3-(1H-indol-3-yl)-2-methyl-1-oxo-2-[[(tricyclo[3.3.1.1^3,7]dec-2-yloxy)carbonyl]amino]propyl]amino]-1-phenylethyl]amino]-4-oxobutanoic acid], in assay [1], the “Inhibition of Feeding on Rat Palatable Diet Assay I.P. MPE50” value was found to be 17.4 mg/kg. Moreover, the “reversibility of the antagonism” value in assay [2] is reported as “reversible with full recovery of the response to pentagastrin”. Moreover, the “effect on stimulation of gastric acid secretion produced by pentagastrin” value in assay [2] (compound IV, anesthetized rat) is on record as “antagonized”. Besides, the “cellular proliferation expressed as a percentage of control” value in the assay on LoVo cells (10^-1 M, 24 hours) is on record as 58.93±7.30%; with LoVo cells (10^-1 M, 48 hours), 82.60±2.33%; in the assay with LoVo cells (10^-1 M, 72 hours), 80.53±3.06%; with LoVo cells (10^-7 M, 24 hours) it was 81.60±6.62%; in the assay on LoVo cells (10^-7 M, 48 hours), 95.33±2.50%; in the assay on LoVo cells (10^-7 M, 72 hours), 84.71±6.97%. Moreover, the “cellular proliferation expressed as a percentage of control” value in the assay with LoVo cells (10^-8 M, 24 hours) amounted to 70.13±7.15%; in the assay on LoVo cells (10^-8 M, 48 hours) it was 93.20±4.04%; in the assay with LoVo cells (10^-8 M, 72 hours), 85.93±4.19%; with LoVo cells (10^-9 M, 24 hours) it was 62.47±7.20%; with LoVo cells (10^-9 M, 48 hours), 82.73±2.97%; in the assay with LoVo cells (10^-9 M, 72 hours), 79.07±3.18%. The “cellular proliferation expressed as a percentage of control” value in the assay on LoVo cells (10^-11 M, 24 hours, LoVo, serum-free RPMI) amounted to 66.47±6.72%; in the assay with LoVo cells (10^-11 M, 48 hours), 80.47±2.64%; in the assay with LoVo cells (10^-11 M, 72 hours), 78.87±3.25%. Also, the “concentrations with significant inhibition” value in the assay on LoVo cells (after 24 and 72 hours (ANOVA)) is listed as 10^-11 to 10^-8 M; in the assay on LoVo cells (at 48 hours (ANOVA)) it was 10^-11 to 10^-9 M. In the assay with LoVo cells (cultures not refed with compound), the “time of maximum inhibition” value was 24 h. For the same molecule, in assay [3] (compound alone, similar to morphine), the “flexor response (FIG. 16)” value is given as “depresses the flexor response”. Moreover, the “duration of the potentiated effect” value in assay [3] (given with morphine) was found to be 3 h. For the same molecule, in assay [3] (given with morphine), the “effect on flexor response when given with morphine (FIG. 16)” value is “greatly potentiates the effect”.
